Bounds are passed on as bounds.

In the first assay the test system is influenza A virus (A/PR/8/34). Nature of the assay: microbe, parasite or virus in culture. Type of assay: cell-based. The settings on record: Influenza A virus, PR/8, MDCK, MDCK cells infected with A/PR/8/34; survival of infected cells; class symbols; read-out: IC50 (mean all).
As to `O=C(OCC1CCOC1)N1CC[C@H](Nc2nc(-c3c[nH]c4ncc(Cl)cc34)ncc2F)C1` (stereo partly shown) [Compound 484], the IC50 (commonly the point on the concentration scale where inhibition reaches its midpoint) fell in the range of 5 to 20 µM. With `CC(=O)N1CCC[C@H](Nc2ccnc(-c3c[nH]c4ncc(Cl)cc34)n2)C1` [Compound 485], the IC50 fell in the range of 5 to 20 µM. Still for that read-out and setting: in the case of `COC(=O)CCC(=O)N1CCCC(Nc2ccnc(-c3c[nH]c4ncc(Cl)cc34)n2)C1` [Compound 487, (S)-methyl 4-(3-((2-(5-chloro-1H-pyrrolo[2,3-b]pyridin-3-yl)pyrimidin-4-ylamino)piperidin-1-yl)-4-oxobutanoate] it was 5 to 20 µM; in that of `CC(C)CC(=O)N1CCC[C@H](Nc2ccnc(-c3c[nH]c4ncc(Cl)cc34)n2)C1` [Compound 489], below 5 µM; in that of `COCC(=O)N1CCC[C@H](CNc2ccnc(-c3c[nH]c4ncc(Cl)cc34)n2)C1` [Compound 491, (R)-1-(3-((2-(5-chloro-1H-pyrrolo[2,3-b]pyridin-3-yl)pyrimidin-4-ylamino)methyl)piperidin-1-yl)-2-methoxyethanone], below 5 µM. The same measure, in the same setting: with `CC(C)CC(=O)N1CCC[C@H](CNc2ccnc(-c3c[nH]c4ncc(Cl)cc34)n2)C1` [Compound 494, (R)-1-(3-((2-(5-chloro-1H-pyrrolo[2,3-b]pyridin-3-yl)pyrimidin-4-ylamino)methyl)piperidin-1-yl)-3-methylbutan-1-one] the figure was 5 to 20 µM; with `CS(=O)(=O)N1CCCC(Nc2nc(-c3c[nH]c4ncc(Cl)cc34)ncc2F)CC1` (stereo not shown) [Compound 496, N-(2-(5-chloro-1H-pyrrolo[2,3-b]pyridin-3-yl)-5-fluoropyrimidin-4-yl)-1-(methylsulfonyl)azepan-4-amine], 5 to 20 µM. Consider `COC(=O)N1CCCC(Nc2nc(-c3c[nH]c4ncc(Cl)cc34)ncc2F)CC1` (stereo not shown) [Compound 498, methyl 4-(2-(5-chloro-1H-pyrrolo[2,3-b]pyridin-3-yl)-5-fluoropyrimidin-4-ylamino)azepane-1-carboxylate], for which the IC50 is below 5 µM. On the same count and under the same terms, in the case of `O=C1NCCCC[C@@H]1Nc1ccnc(-c2c[nH]c3ncc(F)cc23)n1` [Compound 501] it was 5 to 20 µM; in that of `O=C1CC[C@H](CNc2nc(-c3c[nH]c4ncc(Cl)cc34)ncc2F)N1` [Compound 503], below 5 µM; in that of `CC(C)(C)OC(=O)N1CCOCC1CNc1nc(-c2c[nH]c3ncc(Cl)cc23)ncc1F` (stereo not shown) [Compound 515, Tert-Butyl 3-((2-(5-chloro-1H-pyrrolo[2,3-b]pyridin-3-yl)-5-fluoropyrimidin-4-ylamino)methyl)morpholine-4-carboxylate], above 20 µM. Still for that read-out and setting: in the case of `CCC(=O)N1CCOCC1CNc1nc(-c2c[nH]c3ncc(Cl)cc23)ncc1F` (stereo not shown) [Compound 516, 1-(3-((2-(5-chloro-1H-pyrrolo[2,3-b]pyridin-3-yl)-5-fluoropyrimidin-4-ylamino)methyl)morpholino)propan-1-one] it was 5 to 20 µM; in that of `CCCNC(=O)N1CCOCC1CNc1nc(-c2c[nH]c3ncc(Cl)cc23)ncc1F` (stereo not shown) [Compound 517, 3-((2-(5-chloro-1H-pyrrolo[2,3-b]pyridin-3-yl)-5-fluoropyrimidin-4-ylamino)methyl)-N-propylmorpholine-4-carboxamide], 5 to 20 µM. As for `CCN(CC)C(=O)[C@@H]1CCCC[C@@H]1Nc1nc(-c2c[nH]c3ncc(Cl)cc23)ncc1F` [Compound 518, (1R,2S)-2-(2-(5-chloro-1H-pyrrolo[2,3-b]pyridin-3-yl)-5-fluoropyrimidin-4-ylamino)-N,N-diethylcyclohexanecarboxamide], the half-maximal inhibitory concentration (IC50) is above 20 µM. Regarding `CCNC(=O)[C@@H]1CCCC[C@@H]1Nc1nc(-c2c[nH]c3ncc(Cl)cc23)ncc1F` [Compound 519, (1R,2S)-2-(2-(5-chloro-1H-pyrrolo[2,3-b]pyridin-3-yl)-5-fluoropyrimidin-4-ylamino)-N-ethylcyclohexanecarboxamide], the IC50 was in the range of 5 to 20 µM. Turning to `CCN(CC)C(=O)[C@H]1CCCC[C@@H]1Nc1nc(-c2c[nH]c3ncc(Cl)cc23)ncc1F` [Compound 520], the IC50 was above 20 µM. Take `CCNC(=O)[C@H]1CCCC[C@@H]1Nc1nc(-c2c[nH]c3ncc(Cl)cc23)ncc1F` [Compound 521, (1S,2S)-2-(2-(5-chloro-1H-pyrrolo[2,3-b]pyridin-3-yl)-5-fluoropyrimidin-4-ylamino)-N-ethylcyclohexanecarboxamide]: the IC50 was in the range of 5 to 20 µM. For `CN(C)[C@H]1CCCC[C@@H]1Nc1nc(-c2c[nH]c3ncc(Cl)cc23)ncc1F` [Compound 523, (1S,2S)—N1-(2-(5-chloro-1H-pyrrolo[2,3-b]pyridin-3-yl)-5-fluoropyrimidin-4-yl)-N2,N2-dimethylcyclohexane-1,2-diamine], the IC50 was above 20 µM.

The same assay, now with this note: Influenza A virus, PR/8, MDCK, mean all; A/PR/8/34 infected MDCK cells, CPE assay; read-out: IC50.
As to `COCC(=O)N1CC[C@H](Nc2nc(-c3c[nH]c4ncc(Cl)cc34)ncc2F)C1` [Compound 481], the IC50 fell in the range of 5 to 20 µM. For the compound `CC1(C(=O)N2CC[C@H](Nc3nc(-c4c[nH]c5ncc(Cl)cc45)ncc3F)C2)COC1` [Compound 482], the IC50 is below 5 µM. As to `O=C(C1CNCCO1)N1CC[C@H](Nc2nc(-c3c[nH]c4ncc(Cl)cc34)ncc2F)C1` (stereo partly shown) [Compound 483], the IC50 was above 20 µM.

The same assay, now with this note: MDCK cells infected with A/PR/8/34; survival of infected cells; class symbols; read-out: IC50 (mean all).
For `COC(=O)CCC(=O)N1CCCC(CNc2ccnc(-c3c[nH]c4ncc(Cl)cc34)n2)C1` (stereo not shown) [Compound 492], the IC50 lay in the range of 5 to 20 µM.

On to `CS(=O)(=O)N1CC(Nc2nc(-c3c[nH]c4ncc(Cl)cc34)ncc2F)C1` [Compound 508], for which the IC50 was above 20 µM.

With `NC1CCCC(Nc2ccnc(-c3c[nH]c4ncc(Cl)cc34)n2)C1` (stereo not shown) [Compound 510], the IC50 is above 20 µM.

The same assay, now with this note: read-out: IC50.
As for `COP(=O)(OC)[C@@]1(O)CCC[C@H](Nc2nc(-c3c[nH]c4ncc(Cl)cc34)ncc2F)C1` [Compound 741], the IC50 is below 5 µM. Turning to `COP(=O)(OC)[C@]1(O)CCC[C@H](Nc2nc(-c3c[nH]c4ncc(Cl)cc34)ncc2F)C1` [Compound 742], the IC50 is below 5 µM.

Staying with this assay, now noted: read-out: IC50 (mean all).
With `COCC(=O)N1CCC[C@H](Nc2nc(-c3c[nH]c4ncc(Cl)cc34)ncc2F)C1` [Compound 486], the IC50 is 5 to 20 µM. On the same count and under the same terms, in the case of `COCCC(=O)N1CCC[C@H](Nc2nc(-c3c[nH]c4ncc(Cl)cc34)ncc2F)C1` [Compound 488] it was above 20 µM. With “(R)-ethyl 3-((2-(5-chloro-1H-pyrrolo[2,3-b]pyridin-3-yl)pyrimidin-4-ylamino)methyl)piperidine-1-carboxylate [Compound 495]”, the IC50 is 5 to 20 µM. Still for that read-out and setting: in the case of “(S)-6-(2-(5-chloro-1H-pyrrolo[2,3-b]pyridin-3-yl)-5-fluoropyrimidin-4-ylamino)-4-(4-methoxybenzyl)-1,4-oxazepan-2-one [Compound 505]” it was 5 to 20 µM.

The test system of another assay is A/PR/8/34 influenza virus. Nature of the assay: microbe, parasite or virus in culture. Type of assay: cell-based. Conditions: Influenza A virus, PR/8, MDCK, MDCK cells infected with A/PR/8/34, bDNA viral RNA; read-out: EC50 (mean all).
Take `Fc1cnc(-c2c[nH]c3ncc(Cl)cc23)nc1N[C@H]1CCCN(CC(F)F)C1` [Compound 1, (S)-2-(5-chloro-1H-pyrrolo[2,3-b]pyridin-3-yl)-N-(1-(2,2-difluoroethyl)piperidin-3-yl)-5-fluoropyrimidin-4-amine]: the concentration for a half-maximal effect (EC50) (usually the concentration at which the effect is half-maximal) is below 5 µM.

The assay is the same for the next values; noted with them: Influenza A virus, PR/8, MDCK, MDCK cells infected with A/PR/8/34; replication of influenza virus (viral RNA, bDNA); class symbols; read-out: EC50 (mean all).
With `CS(=O)(=O)N[C@@H]1CCCC[C@H]1CNc1nc(-c2c[nH]c3ncc(Cl)cc23)ncc1F` (relative stereo) [Compound 557, N-(trans-2-((2-(5-chloro-1H-pyrrolo[2,3-b]pyridin-3-yl)-5-fluoropyrimidin-4-ylamino)methyl)cyclohexyl)methanesulfonamide], the EC50 is below 5 µM.

`C[C@@]1(C(=O)O)CCCC[C@H]1Nc1nc(-c2c[nH]c3ncc(Cl)cc23)ncc1F` (stereo in doubt) [Compound 582, Trans-2-(2-(5-chloro-1H-pyrrolo[2,3-b]pyridin-3-yl)-5-fluoropyrimidin-4-ylamino)-1-methylcyclohexanecarboxylic acid]: the EC50 is below 5 µM. Turning to `CC(C)(O)CN1CCC[C@H](Nc2nc(-c3c[nH]c4ncc(Cl)cc34)ncc2F)C1` [Compound 546], the EC50 is below 5 µM.

In the case of `COC(=O)N[C@H]1CCC[C@@H](Nc2nc(-c3c[nH]c4ncc(Cl)cc34)ncc2F)C1` [Compound 548, Methyl N-[(1S,3R)-3-[[2-(5-chloro-1H-pyrrolo[2,3-b]pyridin-3-yl)-5-fluoro-pyrimidin-4-yl]amino]cyclohexyl]carbamate], the EC50 is below 5 µM. For the compound `CN(C)C(=O)N[C@H]1CCC[C@@H](Nc2nc(-c3c[nH]c4ncc(Cl)cc34)ncc2F)C1` [Compound 549, 3-[(1S,3R)-3-[[2-(5-chloro-1H-pyrrolo[2,3-b]pyridin-3-yl)-5-fluoro-pyrimidin-4-yl]amino]cyclohexyl]-1,1-dimethyl-urea], the EC50 was below 5 µM.

Regarding `COCC(O)CN1CC[C@H](C)[C@H](Nc2nc(-c3c[nH]c4ncc(Cl)cc34)ncc2F)C1` (stereo partly shown) [Compound 550], the EC50 was below 5 µM.

The same assay, now with this note: Influenza A virus, PR/8, mean all; replication of A/PR/8/34 influenza virus (bDNA assay); read-out: EC50.
On to `C[C@]1(C(=O)O)CCC[C@H](Nc2nc(-c3c[nH]c4ncc(Cl)cc34)ncc2F)[C@H]1O` (single isomer, unassigned) [Compound 928], for which the EC50 was below 5 µM.

The assay is the same for the next values; noted with them: MDCK cells infected with A/PR/8/34; replication of influenza virus (viral RNA, bDNA); class symbols; read-out: EC50 (mean all).
As for `CC(=O)N[C@@H]1CCC[C@H](Nc2nc(-c3c[nH]c4ncc(Cl)cc34)ncc2F)C1` [Compound 547, N-[(1R,3S)-3-[[2-(5-chloro-1H-pyrrolo[2,3-b]pyridin-3-yl)-5-fluoro-pyrimidin-4-yl]amino]cyclohexyl]acetamide], the EC50 was below 5 µM.

The same assay, now with this note: […]; replication of influenza virus (viral RNA, bDNA); class symbols; read-out: EC50 (mean all).
Take `CC[C@]1(C(=O)O)CCCC[C@H]1Nc1nc(-c2c[nH]c3ncc(Cl)cc23)ncc1F` (relative stereo) [Compound 585, cis-2-(2-(5-chloro-1H-pyrrolo[2,3-b]pyridin-3-yl)-5-fluoropyrimidin-4-ylamino)-1-ethylcyclohexanecarboxylic acid]: the EC50 is below 5 µM.

The record behind these values is patent publication US8829007B2 (priority 2009, dated 2014).
